This is an account of results in patent US6127136A, “Detection of dioxin-like compounds by detection of transformed Ah receptor/ARNT complex” (Paracelsian, Inc., priority 1996, dated 2000).

The test system of test [1] is transformed AhR/ARNT complex. As to the kind of experiment: size exclusion of biotin-DRE/AhR/ARNT/anti-ARNT complex followed by capture on neutravidin ELISA plates. The format is biochemical, guinea pig (hepatic cytosol). The conditions noted are these: FIG. 5, OD at 405 nm. The method, then: Size-exclusion of biotin-DRE/AhR/ARNT/anti-ARNT complex followed by capture on neutravidin ELISA plates and detection with anti-rabbit/alkaline phosphatase conjugate.
Diethanolamine buffer was prepared by dissolving 0.4 g Magnesium chloride hexahydrate, 0.8 g sodium azide, 338 mL diethanolamine in 2.5 L deionized water, adjusting pH to 9.8 with concentrated HCl, and adjusting volume to 4 liters.
PNPP stock was prepared fresh by dissoving two 15 mg tablets of para-nitro phenyl phosphate (Sigma, St. Louis, Mo.) in 20 mL diethanolamine buffer.
The same size exclusion column operating conditions were used as described above, except the DRE used was B-ERD oligo (SEQ. ID. #3) and DRE-D oligo (SEQ. ID #1)hybridized as described in methods. […]
Samples were incubated for 2 hours at room temperature as described above to achieve transformation/binding events then put on ice. […] The plate was incubated 2 hours, washed 3 times with 300 uL per well PBS plus 0.02% Tween 20, incubated 1 hour with 200 uL per well 1:1000 anti-rabbit/alkaline phosphatase conjugate in PBS plus 0.02% Tween 20 and 0.1% bovine serum albumin, washed 3 times with 300 uL per well PBS plus Tween 20 and developed 2 hours with 200 uL per well PnPP stock, and the optical density read at 405 nm in an ELISA spectrophotometer.

The target of test [2] is transformed Ah receptor/ARNT complex (Cavia porcellus, UniProt Q6J287). Put plainly: Ah-ELISA dose response using an amplified detection system. Set-up: from tissue; host or cells: hepatic cytosol of male Hartley guinea pigs (animals from Cornell Research Animal Resources). The following applies: for Average Optical Density: 490 nm, amplified, 28 minutes. The class given is biochemical, guinea pig (hepatic cytosol). Here is the method:
The reagents and ELISA plate were prepared as described in Example 9 with an amplified detection system. The TCDD concentration was varied tested at 0, 0.016, 0.031, 0.063, 0.125, 0.25, 0.5, 1.0, 2.0, and 4.0 nM.
The amplified detection system used was the alkaline phosphatase/NADP system published by Johannson et al. (J IMM Meth 87: 7-11, 1986). This system is sold as a kit under the trademark Ampak™ by DAKO.
2x enzyme stock was made by dissolving 8 mg alcohol dehydrogenase, 1.4 mg Diaphorase, 133 mg bovine serum albumin in 40 ml AMP buffer (2.3 g 85% HPLC grade phosphoric acid in a total volume of 960 ml water, pH adjusted to 7.2 with 6N NaOH, and 40 ml of ethanol was added to make 1 L). 2x INT stock was made by dissolving 50 mg INT Violet dye in 50 mL AMP buffer.
After washing the plates, 100 μl of NADP stock (0.837 mg in 10 ml of AP buffer (diethanolamine 50 mM, 1 mM MgCl2, 0.1 mM ZnCl2, 15 mM NaN3, pH 9.5)) was added and allowed to incubate at room temperature for 30 minutes. Sensitivity can be increased by increasing amount of NADP or time of incubation. The 2x enzyme stock and 2x INT stock were mixed and 200 μl of the mixture was added per well. The OD was read at 490 nm (usually read at 1 minute intervals for up to 30 minutes). The results are shown below at 28 minutes.

Sequence of transformed Ah receptor/ARNT complex (Q6J287 1-846): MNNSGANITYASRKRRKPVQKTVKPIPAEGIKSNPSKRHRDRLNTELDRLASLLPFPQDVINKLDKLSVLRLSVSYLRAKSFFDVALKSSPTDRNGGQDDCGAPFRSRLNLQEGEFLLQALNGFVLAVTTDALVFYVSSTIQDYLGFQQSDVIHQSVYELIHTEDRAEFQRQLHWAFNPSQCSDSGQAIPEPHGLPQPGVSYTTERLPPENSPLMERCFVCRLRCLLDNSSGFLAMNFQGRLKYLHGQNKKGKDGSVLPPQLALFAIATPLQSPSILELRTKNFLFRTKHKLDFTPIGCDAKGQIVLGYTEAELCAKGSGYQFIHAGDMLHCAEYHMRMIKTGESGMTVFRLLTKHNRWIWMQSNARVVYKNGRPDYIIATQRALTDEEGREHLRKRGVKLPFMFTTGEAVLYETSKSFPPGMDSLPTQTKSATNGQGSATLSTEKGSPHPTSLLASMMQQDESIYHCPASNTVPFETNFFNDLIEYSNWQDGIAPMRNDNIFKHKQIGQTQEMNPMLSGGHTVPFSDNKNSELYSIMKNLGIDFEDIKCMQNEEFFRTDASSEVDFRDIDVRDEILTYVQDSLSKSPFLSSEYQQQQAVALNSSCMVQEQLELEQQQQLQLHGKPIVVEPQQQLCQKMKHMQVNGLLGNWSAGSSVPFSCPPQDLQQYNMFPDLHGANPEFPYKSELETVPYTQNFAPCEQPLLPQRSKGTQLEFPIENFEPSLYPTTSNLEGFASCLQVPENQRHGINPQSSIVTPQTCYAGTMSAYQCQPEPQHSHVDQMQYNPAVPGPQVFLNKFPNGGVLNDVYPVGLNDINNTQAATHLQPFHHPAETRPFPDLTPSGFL
Sequence of transformed Ah receptor/ARNT complex (Q0WXX3 1-790 partner): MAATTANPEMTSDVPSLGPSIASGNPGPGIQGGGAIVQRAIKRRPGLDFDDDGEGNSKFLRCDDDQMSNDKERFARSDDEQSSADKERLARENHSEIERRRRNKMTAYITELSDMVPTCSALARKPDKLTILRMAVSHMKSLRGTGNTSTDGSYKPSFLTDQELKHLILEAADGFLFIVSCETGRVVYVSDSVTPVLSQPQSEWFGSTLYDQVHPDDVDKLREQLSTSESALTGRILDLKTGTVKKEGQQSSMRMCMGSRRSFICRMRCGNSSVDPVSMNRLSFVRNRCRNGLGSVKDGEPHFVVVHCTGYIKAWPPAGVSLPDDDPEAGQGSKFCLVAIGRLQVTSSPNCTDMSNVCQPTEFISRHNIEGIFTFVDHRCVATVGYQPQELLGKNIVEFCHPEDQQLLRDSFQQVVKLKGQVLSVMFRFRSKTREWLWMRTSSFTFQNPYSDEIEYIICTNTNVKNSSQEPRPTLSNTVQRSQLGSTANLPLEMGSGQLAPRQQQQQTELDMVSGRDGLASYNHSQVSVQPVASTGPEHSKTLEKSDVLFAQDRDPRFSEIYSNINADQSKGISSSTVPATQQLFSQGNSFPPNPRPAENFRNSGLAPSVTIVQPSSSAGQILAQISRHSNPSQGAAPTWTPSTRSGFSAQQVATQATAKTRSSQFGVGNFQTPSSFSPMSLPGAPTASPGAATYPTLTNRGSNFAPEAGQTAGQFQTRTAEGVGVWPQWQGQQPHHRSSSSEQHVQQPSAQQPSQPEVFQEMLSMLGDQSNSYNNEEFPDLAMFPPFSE

`Clc1cc2c(cc1Cl)Oc1cc(Cl)c(Cl)cc1O2` [TCDD, 2,3,7,8-tetrachlorodibenzo-p-dioxin]: in test [1], the “TCDD-dependent peak, fractions” value is 18-28 fractions. For the same compound, the “Average Optical Density” value is on record as 0.203 in test [2] (0.016 nM TCDD); 0.228 in test [2] (0.031 nM TCDD); 0.293 in test [2] (0.063 nM TCDD); 0.414 in test [2] (0.125 nM TCDD); 0.675 in test [2] (0.25 nM TCDD); 1.036 in test [2] (0.5 nM TCDD). Further, the “Average Optical Density” value was 1.421 in test [2] (1 nM TCDD), 1.803 in test [2] (2 nM TCDD) and 1.844 in test [2] (4 nM TCDD). Besides, the EC50 in test [2] (amplified detection, FIG. 7) is ~0.248 nM.
